From US8415469B2, “Compounds and methods for kinase modulation, and indications therefor” (Plexxikon Inc., priority 2005, dated 2013)

Columns and labels:
Format in all cases: biochemical
Jnk2 = biological target: T1, Jnk2 (Homo sapiens, UniProt P45984); test: AlphaScreen kinase assay, Jnk2; settings: read-out: IC50, activity toward kinase Jnk2
T1 construct: purchased Roche Protein Expression Group (Indianapolis, IN)
How it was run: (§1)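 Compounds in DMSO (20 mM stock) were diluted 1:3 across 8 points. Each kinase phosphorylated a biotin-labelled peptide. Signal generated when donor and acceptor beads came close via antibody binding of phosphorylated substrate.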

Itk = biological target: T2, Itk (Homo sapiens, UniProt Q08881); test: AlphaScreen kinase assay, Itk; settings: read-out: IC50, activity toward kinase Itk
T2 sequence (Q08881 1-620): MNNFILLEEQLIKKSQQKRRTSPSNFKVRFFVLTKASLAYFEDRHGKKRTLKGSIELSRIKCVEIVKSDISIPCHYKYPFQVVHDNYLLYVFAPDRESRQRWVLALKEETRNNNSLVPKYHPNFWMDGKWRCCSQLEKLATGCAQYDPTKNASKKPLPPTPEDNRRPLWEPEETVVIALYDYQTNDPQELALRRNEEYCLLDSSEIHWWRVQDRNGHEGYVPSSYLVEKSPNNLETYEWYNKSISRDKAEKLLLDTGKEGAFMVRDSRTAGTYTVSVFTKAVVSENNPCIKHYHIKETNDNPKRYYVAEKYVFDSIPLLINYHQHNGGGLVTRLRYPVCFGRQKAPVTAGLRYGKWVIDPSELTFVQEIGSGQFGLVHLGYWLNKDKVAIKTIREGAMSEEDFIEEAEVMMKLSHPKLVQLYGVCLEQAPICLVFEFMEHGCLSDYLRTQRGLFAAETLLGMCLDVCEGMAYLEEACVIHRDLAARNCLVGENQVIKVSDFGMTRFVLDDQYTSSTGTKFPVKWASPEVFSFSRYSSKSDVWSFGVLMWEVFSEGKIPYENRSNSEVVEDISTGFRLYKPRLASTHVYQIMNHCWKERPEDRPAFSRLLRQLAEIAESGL
How it was run: as §1

MAP2K1 = biological target: T3, MAP2K1 (Homo sapiens, UniProt Q02750); test: Z'-Lyte FRET kinase assay (Invitrogen), MAP2K1; settings: read-out: IC50, activity toward kinase MAP2K1
T3 construct: purchased Invitrogen (assay run by Invitrogen)
T3 sequence (Q02750 whole entry): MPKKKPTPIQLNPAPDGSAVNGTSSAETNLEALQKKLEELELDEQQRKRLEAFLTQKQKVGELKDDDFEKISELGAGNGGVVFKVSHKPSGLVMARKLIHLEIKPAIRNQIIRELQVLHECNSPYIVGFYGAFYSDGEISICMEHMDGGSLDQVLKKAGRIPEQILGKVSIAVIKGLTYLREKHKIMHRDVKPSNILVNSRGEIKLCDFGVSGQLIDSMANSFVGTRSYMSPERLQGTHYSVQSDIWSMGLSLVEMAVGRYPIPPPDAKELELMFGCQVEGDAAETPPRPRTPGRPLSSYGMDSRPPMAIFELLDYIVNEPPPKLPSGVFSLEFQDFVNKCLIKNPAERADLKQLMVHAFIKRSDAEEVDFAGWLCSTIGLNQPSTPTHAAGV

IGF1R = IGF1R (Homo sapiens, UniProt P08069); test: AlphaScreen kinase assay, IGF1R; settings: read-out: IC50, activity toward kinase IGF1R
Sequence of IGF1R (P08069 31-1367): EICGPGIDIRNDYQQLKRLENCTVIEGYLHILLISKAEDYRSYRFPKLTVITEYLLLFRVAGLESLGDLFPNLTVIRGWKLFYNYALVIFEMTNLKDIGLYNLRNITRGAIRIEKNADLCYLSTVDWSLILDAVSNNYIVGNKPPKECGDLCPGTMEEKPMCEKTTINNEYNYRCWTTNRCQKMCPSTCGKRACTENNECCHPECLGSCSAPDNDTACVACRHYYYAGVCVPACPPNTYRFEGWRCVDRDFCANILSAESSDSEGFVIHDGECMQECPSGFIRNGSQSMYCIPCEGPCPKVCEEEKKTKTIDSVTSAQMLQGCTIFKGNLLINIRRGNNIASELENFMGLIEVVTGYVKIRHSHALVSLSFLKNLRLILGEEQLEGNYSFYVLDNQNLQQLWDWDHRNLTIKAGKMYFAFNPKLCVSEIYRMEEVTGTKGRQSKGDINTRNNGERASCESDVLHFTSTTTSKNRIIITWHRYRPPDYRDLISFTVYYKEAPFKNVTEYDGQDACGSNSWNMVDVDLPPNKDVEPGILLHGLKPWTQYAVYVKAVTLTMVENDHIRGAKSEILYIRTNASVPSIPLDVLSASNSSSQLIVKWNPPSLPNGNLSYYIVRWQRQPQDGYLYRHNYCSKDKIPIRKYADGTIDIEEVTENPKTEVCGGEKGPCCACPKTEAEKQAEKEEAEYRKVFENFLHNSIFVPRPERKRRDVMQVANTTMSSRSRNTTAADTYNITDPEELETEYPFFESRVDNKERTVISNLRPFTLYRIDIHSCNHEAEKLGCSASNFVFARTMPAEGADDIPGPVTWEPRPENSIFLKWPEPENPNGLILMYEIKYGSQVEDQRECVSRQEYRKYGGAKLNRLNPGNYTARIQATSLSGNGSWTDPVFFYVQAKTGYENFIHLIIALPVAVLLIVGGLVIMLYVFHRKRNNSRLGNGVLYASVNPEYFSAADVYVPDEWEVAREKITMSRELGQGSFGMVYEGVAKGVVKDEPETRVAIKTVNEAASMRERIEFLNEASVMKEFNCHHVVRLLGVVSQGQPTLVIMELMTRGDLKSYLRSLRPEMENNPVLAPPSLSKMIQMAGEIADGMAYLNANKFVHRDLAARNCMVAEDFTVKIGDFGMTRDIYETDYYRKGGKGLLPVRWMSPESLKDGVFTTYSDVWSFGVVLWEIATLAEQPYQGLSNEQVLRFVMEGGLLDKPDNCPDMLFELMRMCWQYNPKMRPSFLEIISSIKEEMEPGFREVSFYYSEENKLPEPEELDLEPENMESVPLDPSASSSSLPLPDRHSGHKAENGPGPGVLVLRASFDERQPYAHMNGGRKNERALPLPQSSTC

Flt4 = biological target: T4, Flt4 (Homo sapiens, UniProt P35916); test: AlphaScreen kinase assay, Flt4; settings: read-out: IC50, activity toward kinase Flt4
T4 construct: purchased ProQinase GmbH (Freiburg, Germany)
T4 sequence (P35916 25-1363): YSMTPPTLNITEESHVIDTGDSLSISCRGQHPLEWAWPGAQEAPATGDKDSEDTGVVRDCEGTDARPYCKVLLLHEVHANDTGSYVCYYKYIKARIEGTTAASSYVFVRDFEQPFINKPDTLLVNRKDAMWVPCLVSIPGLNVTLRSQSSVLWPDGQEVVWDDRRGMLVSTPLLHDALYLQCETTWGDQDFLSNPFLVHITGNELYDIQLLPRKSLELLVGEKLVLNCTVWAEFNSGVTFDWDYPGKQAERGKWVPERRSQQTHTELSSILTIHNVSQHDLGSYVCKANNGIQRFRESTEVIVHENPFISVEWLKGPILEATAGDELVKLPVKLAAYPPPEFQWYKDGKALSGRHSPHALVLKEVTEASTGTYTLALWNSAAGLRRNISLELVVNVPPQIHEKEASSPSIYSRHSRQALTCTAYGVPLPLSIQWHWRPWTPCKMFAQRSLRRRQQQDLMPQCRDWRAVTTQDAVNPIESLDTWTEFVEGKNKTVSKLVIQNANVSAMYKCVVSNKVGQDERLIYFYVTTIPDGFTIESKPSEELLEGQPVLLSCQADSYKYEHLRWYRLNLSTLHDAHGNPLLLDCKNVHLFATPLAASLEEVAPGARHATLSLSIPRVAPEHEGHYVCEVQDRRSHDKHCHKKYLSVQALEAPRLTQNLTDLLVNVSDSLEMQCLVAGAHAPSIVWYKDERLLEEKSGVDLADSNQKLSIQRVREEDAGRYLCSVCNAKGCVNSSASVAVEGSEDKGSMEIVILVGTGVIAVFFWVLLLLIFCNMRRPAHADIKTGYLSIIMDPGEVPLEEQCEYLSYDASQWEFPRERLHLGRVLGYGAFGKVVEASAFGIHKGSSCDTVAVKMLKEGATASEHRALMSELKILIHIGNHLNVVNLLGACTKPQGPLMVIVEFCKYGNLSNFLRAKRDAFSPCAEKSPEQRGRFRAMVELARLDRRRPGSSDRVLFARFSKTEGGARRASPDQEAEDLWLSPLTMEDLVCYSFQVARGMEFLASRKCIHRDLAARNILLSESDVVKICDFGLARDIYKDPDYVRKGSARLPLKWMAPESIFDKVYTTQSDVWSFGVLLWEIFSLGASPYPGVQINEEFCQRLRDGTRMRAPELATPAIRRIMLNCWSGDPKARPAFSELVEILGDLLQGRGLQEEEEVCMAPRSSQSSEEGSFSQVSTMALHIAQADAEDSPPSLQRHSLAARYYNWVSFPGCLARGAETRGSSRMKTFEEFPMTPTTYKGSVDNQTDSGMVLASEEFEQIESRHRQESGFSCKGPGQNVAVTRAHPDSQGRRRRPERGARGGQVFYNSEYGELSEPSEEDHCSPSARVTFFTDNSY
How it was run: as §1

T1 sequence (P45984 whole entry): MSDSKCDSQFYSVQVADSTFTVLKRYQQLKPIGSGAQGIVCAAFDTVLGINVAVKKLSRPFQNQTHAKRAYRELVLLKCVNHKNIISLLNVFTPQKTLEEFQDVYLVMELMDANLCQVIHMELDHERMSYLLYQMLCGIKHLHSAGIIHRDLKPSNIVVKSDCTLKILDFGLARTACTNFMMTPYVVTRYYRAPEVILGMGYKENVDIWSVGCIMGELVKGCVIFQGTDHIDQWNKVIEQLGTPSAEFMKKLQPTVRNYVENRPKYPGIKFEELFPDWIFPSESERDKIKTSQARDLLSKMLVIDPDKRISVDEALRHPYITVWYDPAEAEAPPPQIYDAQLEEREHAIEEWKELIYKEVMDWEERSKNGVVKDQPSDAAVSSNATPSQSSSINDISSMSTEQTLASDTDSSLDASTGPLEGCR

IC50 (Jnk2) [µM] | IC50 (Itk) [µM] | IC50 (MAP2K1) [µM] | IC50 (IGF1R) [µM] | IC50 (Flt4) [µM] | Structure (SMILES)
≤ 10 | ≤ 10 | ≤ 10 | – | – | Cc1c(O)cccc1C(=O)c1c[nH]c2ncc(-c3cccnc3)cc12 [Compound P-0006, (3-Hydroxy-2-methyl-phenyl)-(5-pyridin-3-yl-1H-pyrrolo[2,3b]pyridin-3-yl)-methanone]
≤ 10 | ≤ 10 | – | ≤ 10 | – | Oc1ccc(F)c(C(O)c2c[nH]c3ncc(-c4cccnc4)cc23)c1F (stereo not shown) [Compound P-0009, 2,4-difluoro-3-[hydroxy-(5-pyridin-3-yl-1H-pyrrolo[2,3-b]pyridin-3-yl)-methyl]-phenol]
– | ≤ 10 | – | ≤ 10 | – | Nc1cccc(-c2cnc3[nH]cc(C(=O)c4cccc(O)c4F)c3c2)c1 [Compound P-0004, [5-(3-amino-phenyl)-1H-pyrrolo[2,3-b]pyridin-3-yl]-(2-fluoro-3-hydroxy-phenyl)methanone]
– | – | – | ≤ 10 | – | OCCOc1ccc(F)c(Cc2c[nH]c3ncc(-c4cccnc4)cc23)c1F [Compound P-1394, 2-[2,4-Difluoro-3-(5-pyridin-3-yl-1H-pyrrolo[2,3-b]pyridin-3-ylmethyl)-phenoxy]-ethanol]

The remaining lines, values behind:

Structure (SMILES) | IC50 (Jnk2) [µM] | IC50 (Itk) [µM] | IC50 (MAP2K1) [µM] | IC50 (IGF1R) [µM] | IC50 (Flt4) [µM]
COc1cccc(C(=O)c2c[nH]c3ncc(-c4cccc(NC(C)=O)c4)cc23)c1F [Compound P-1336, N-{3-[3-(2-Fluoro-3-methoxy-benzoyl)-1H-pyrrolo[2,3-b]pyridin-5-yl]-phenyl}-acetamide] | – | – | – | ≤ 10 | –
Nc1cccc(-c2cnc3[nH]cc(C(=O)c4cc(O)ccc4F)c3c2)c1 [Compound P-0002] | – | ≤ 10 | ≤ 10 | ≤ 10 | –
CS(=O)(=O)c1cccc(-c2cnc3[nH]cc(C(=O)c4cc(O)ccc4F)c3c2)c1 [Compound P-0008, (2-Fluoro-5-hydroxy-phenyl)-[5-(3-methanesulfonyl-phenyl)-1H-pyrrolo[2,3-b]pyridin-3-yl]-methanone] | – | ≤ 10 | ≤ 10 | – | –
Nc1cccc(-c2cnc3[nH]cc(C(=O)c4cccc(O)c4)c3c2)c1 [Compound P-0003] | – | ≤ 10 | ≤ 10 | ≤ 10 | ≤ 10
